Experimental data taken from US11707539B2, “FAP-targeted radiopharmaceuticals and imaging agents, and uses related thereto” (Trustees of Tufts College, priority 2020, dated 2023).
Where a SMILES comes first, the peptide text is derived from it.

How the values were obtained:
[1] = test system: HEK-mFAP tumor xenografts; assay: In vivo biodistribution study of [177Lu]-6522, gamma counting; conditions: for Mean (% ID/g): i.v.
[2] = test system: HEK-mFAP tumor xenografts; assay: Efficacy and survival study, single injection; type: in vivo, mouse; conditions: single IV injection
Description: The aim of the study was to assess the therapeutic efficacy of a single injection of ^177Lu-PNT2004 ([^177Lu]-6522) by evaluating tumor growth delay and median survival. ^177Lu-PNT2004 ([^177Lu]-6522) was provided in 3 concentrations, ready for injection (80 μL/mouse), and the injected dose was determined using a well counter (Capintec calibration) #430x10.
A total of 30 HEK-mFAP tumor-bearing mice were used for the study.
Mouse health checks were performed throughout the study on a weekly basis including body weight measurements. Tumor growth was monitored weekly with caliper measurements (tumor volume=length×width^2×0.5). Study endpoints include tumor size >2 cm in any dimension, tumor ulceration, mouse is moribund, and >15% body weight lost from the last measurement. Mice were housed 5 to a cage with ad libitum access to food and water in 20° C. ambient temperature, 40%-50% humidity, and 12-hour light/12-hour dark cycle.
The mice were randomized into 5 groups, n=6 mice per group. The treatment compositions (1 through 5 above) were injected IV through the tail vein using a catheter (mounted with a 30 Ga needle). Injected doses were determined using a well counter (Capintec calibration). Tumor growth was monitored weekly with caliper measurements, and the mice were followed for survival.

[3] = Radiochemical purity by HPLC on storage at room temperature; type: physicochemical; conditions: three days at room temperature
Description: The labeling efficiency was analyzed by instant thin layer chromatography (iTLC) and was typically >98%. For iTLC analysis, 1 μL of diluted labeling solution was applied to a strip of iTLC-SA chromatography paper (Agilent P/N A120B12, 114×2.5 mm) and developed in 0.1M citrate buffer (8 cm solvent migration) to assess free ^177Lu (Rf >0.5) and [^177Lu]-6555 (Rf ˜0). The iTLC strips were analyzed using an Eckert & Ziegler AR-2000 Radio-TLC Imaging Scanner. The radiochemical purity was analyzed by high performance chromatography (HPLC) and was typically >90%. Briefly, the product was analyzed using a Phenomenex Luna 3.0 μm C18(2), 100A, 150 mm×4.6 mm column. Eluent A: 50 mM ammonium acetate in water, eluent B: acetonitrile. Gradient: 2% B from 0-5 min; 2% to 26% B from 5-20 min; 26% to 98% B from 20-25 min; 98% to 2% B from 25-26 min; 2% B from 26-30 min. Flow rate: 1.0 mL/min, Radio-HPLC detector: NaI (Eckert & Zeigler FC-1000), UV: 215 nm. The radiochemical purity remained >90% for three days at room temperature.
The above depicted radiopharmaceutical [^177Lu]-6952 can be prepared as described in Example 19 using the radiochemical precursor 6952 (Example 14 above). The labeling efficiency was analyzed by instant thin layer chromatography (iTLC) and was typically >98%. […] The iTLC strips were analyzed using an Eckert & Ziegler AR-2000 Radio-TLC Imaging Scanner. The radiochemical purity was analyzed by high performance chromatography (HPLC) and was typically >90%. Briefly, the product was analyzed using a Phenomenex Luna 3.0 m C18(2), 100A, 150 mm×4.6 mm column. […]
The labeling efficiency was analyzed by instant thin layer chromatography (iTLC) and was typically >95%. […] The iTLC strips were analyzed using an Eckert & Ziegler AR-2000 Radio-TLC Imaging Scanner. The radiochemical purity was analyzed by high performance chromatography (HPLC) and was typically >95%. Briefly, the product was analyzed using a Phenomenex Luna 3.0 m C18(2), 100Å, 150 mm×4.6 mm column. […]
The labeling efficiency was analyzed by instant thin layer chromatography (iTLC) and was typically >95%. […]

Question: What does the source list for `CC(C)[C@H](NC(=O)CNC(=O)CNC(=O)CN1CCN2CCN3CCN(CC1)CC(=O)[O][Lu]([O]C(=O)C2)[O]C(=O)C3)C(=O)N[C@H](C)C(=O)N1CCC[C@H]1B(O)O` [[^177Lu]-6522] (HELM PEPTIDE1{[O=C1CN2CCN3CCN(CC(=O)[*:2])CCN(CC2)CC(=O)[O][Lu]([O]1)[O]C(=O)C3].G.G.V.[dA].[OB(O)[C@@H]1CCCN1[*:1]]}$$$$V2.0)?
Answer: Mean (% ID/g) ([1]; Blood, 4 h p.i.): 0.3063 % ID/g; Mean (% ID/g) ([1]; Blood, 24 h p.i.): 0.0085 % ID/g; Mean (% ID/g) ([1]; Blood, 48 h p.i.): 0.0029 % ID/g; Mean (% ID/g) ([1]; Blood, 168 h p.i.): 0.0015 % ID/g; Mean (% ID/g) ([1]; Bone, 4 h p.i.): 1.8037 % ID/g; Mean (% ID/g) ([1]; Bone, 24 h p.i.): 0.2658 % ID/g; Mean (% ID/g) ([1]; Bone, 48 h p.i.): 0.4106 % ID/g; Mean (% ID/g) ([1]; Bone, 168 h p.i.): 0.3959 % ID/g; Mean (% ID/g) ([1]; Brain, 4 h p.i.): 0.0281 % ID/g; Mean (% ID/g) ([1]; Brain, 24 h p.i.): 0.0036 % ID/g; Mean (% ID/g) ([1]; Brain, 48 h p.i.): 0.0033 % ID/g; Mean (% ID/g) ([1]; Brain, 168 h p.i.): 0.0020 % ID/g; Mean (% ID/g) ([1]; Heart, 4 h p.i.): 0.1528 % ID/g; Mean (% ID/g) ([1]; Heart, 24 h p.i.): 0.0332 % ID/g; Mean (% ID/g) ([1]; Heart, 48 h p.i.): 0.0311 % ID/g; Mean (% ID/g) ([1]; Heart, 168 h p.i.): 0.0256 % ID/g; Mean (% ID/g) ([1]; Kidneys, 4 h p.i.): 2.3525 % ID/g; Mean (% ID/g) ([1]; Kidneys, 4 h p.i., listed as Compound #2): 2.35±0.51 % ID/g; Mean (% ID/g) ([1]; Kidneys, 24 h p.i.): 0.9585 % ID/g; Mean (% ID/g) ([1]; Kidneys, 48 h p.i.): 0.5318 % ID/g; Mean (% ID/g) ([1]; Kidneys, 168 h (day 7) p.i.): 0.1670 % ID/g; Mean (% ID/g) ([1]; Kidneys, 168 h (day 7) p.i., listed as Compound #2): 0.17±0.02 % ID/g; Mean (% ID/g) ([1]; Liver, 4 h p.i.): 0.3774 % ID/g; Mean (% ID/g) ([1]; Liver, 24 h p.i.): 0.1585 % ID/g; Mean (% ID/g) ([1]; Liver, 48 h p.i.): 0.1237 % ID/g; Mean (% ID/g) ([1]; Liver, 168 h p.i.): 0.0725 % ID/g; Mean (% ID/g) ([1]; Lung, 4 h p.i.): 0.3331 % ID/g; Mean (% ID/g) ([1]; Lung, 24 h p.i.): 0.0306 % ID/g; Mean (% ID/g) ([1]; Lung, 48 h p.i.): 0.0312 % ID/g; Mean (% ID/g) ([1]; Lung, 168 h p.i.): 0.0257 % ID/g; Mean (% ID/g) ([1]; Muscle, 4 h p.i.): 0.4649 % ID/g; Mean (% ID/g) ([1]; Muscle, 24 h p.i.): 0.0315 % ID/g; Mean (% ID/g) ([1]; Muscle, 48 h p.i.): 0.0518 % ID/g; Mean (% ID/g) ([1]; Muscle, 168 h p.i.): 0.0604 % ID/g; Mean (% ID/g) ([1]; Pancreas, 4 h p.i.): 0.2167 % ID/g; Mean (% ID/g) ([1]; Pancreas, 24 h p.i.): 0.0347 % ID/g; Mean (% ID/g) ([1]; Pancreas, 48 h p.i.): 0.0275 % ID/g; Mean (% ID/g) ([1]; Pancreas, 168 h p.i.): 0.0197 % ID/g; Mean (% ID/g) ([1]; Skin, 4 h p.i.): 0.9769 % ID/g; Mean (% ID/g) ([1]; Skin, 24 h p.i.): 0.1158 % ID/g; Mean (% ID/g) ([1]; Skin, 48 h p.i.): 0.0906 % ID/g; Mean (% ID/g) ([1]; Skin, 168 h p.i.): 0.0837 % ID/g; Mean (% ID/g) ([1]; Small intestine, 4 h p.i.): 0.2091 % ID/g; Mean (% ID/g) ([1]; Small intestine, 24 h p.i.): 0.0580 % ID/g; Mean (% ID/g) ([1]; Small intestine, 48 h p.i.): 0.0499 % ID/g; Mean (% ID/g) ([1]; Small intestine, 168 h p.i.): 0.0277 % ID/g; Mean (% ID/g) ([1]; Spleen, 4 h p.i.): 0.2587 % ID/g; Mean (% ID/g) ([1]; Spleen, 24 h p.i.): 0.1418 % ID/g; Mean (% ID/g) ([1]; Spleen, 48 h p.i.): 0.1340 % ID/g; Mean (% ID/g) ([1]; Spleen, 168 h p.i.): 0.1437 % ID/g; Mean (% ID/g) ([1]; Stomach, 4 h p.i.): 0.1706 % ID/g; Mean (% ID/g) ([1]; Stomach, 24 h p.i.): 0.0528 % ID/g; Mean (% ID/g) ([1]; Stomach, 48 h p.i.): 0.0331 % ID/g; Mean (% ID/g) ([1]; Stomach, 168 h p.i.): 0.0210 % ID/g; Mean (% ID/g) ([1]; Tumor, 4 h p.i.): 33.0435 % ID/g; Mean (% ID/g) ([1]; Tumor, 4 h p.i., listed as Compound #2): 33.04±5.29 % ID/g; Mean (% ID/g) ([1]; Tumor, 24 h p.i.): 12.9944 % ID/g; Mean (% ID/g) ([1]; Tumor, 48 h p.i.): 7.6749 % ID/g; Mean (% ID/g) ([1]; Tumor, 168 h p.i.): 3.9910 % ID/g; localization in tumor and normal tissue uptake ([1]; up to 168 h p.i.): high localization in tumor xenografts and low normal tissue uptake; survival benefit ([2]; 15 MBq): did not translate in a survival benefit; tumor growth delay ([2]; 15 MBq): tumor growth delay was observed; survival benefit ([2]; 30 MBq): did not translate in a survival benefit; tumor growth delay ([2]; 30 MBq): tumor growth delay was observed; survival benefit compared to the vehicle or precursor group ([2]; 60 MBq): statically significant survival benefit

Question: Which radiochemical purity remained [3] does the source give for `C[C@@H](NC(=O)c1ccc(CNC(=O)CN2CCN3CCN4CCN(CC2)CC(=O)[O][Lu]([O]C(=O)C3)[O]C(=O)C4)cc1)C(=O)N1CCC[C@H]1B(O)O` [[^177Lu]-6555] here?
Answer: > 90%

Question: With `C[C@@H](NC(=O)[C@H]1CC[C@H](CNC(=O)CN2CCN3CCN4CCN(CC2)CC(=O)[O][Lu]([O]C(=O)C3)[O]C(=O)C4)CC1)C(=O)N1CCC[C@H]1B(O)O` [[^177Lu]-6952] as the compound, how does the radiochemical purity remained [3] read?
Answer: > 90%
